Assay results taken from PubChem BioAssay AID1963967 (Molecular Pharmacology Branch, DTP, NCI, 2024).

Tested on: 855422-203-R-J1-PDC spheroids with HUVEC/MSC, viability
Test: Anticancer human tumor 855422-203-R-J1-PDC patient-derived bladder carcinoma cell line growth inhibition [PI3K]
Conditions: for IC50: curve of first compound; for viability, T/C: stronger effect = lower value
In short: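 Multi-cell spheroids combine tumor cells with HUVEC and human MSCs, treated with targeted agents alone or with inavolisib, alpelisib, duvelisib or copanlisib. Concentrations fall in half-log steps from at or near clinical Cmax, or from 10 microM where Cmax is unknown; viability read-out.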
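Note: agents incubated with spheroids for one week before read-out.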
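Throughout, for viability, T/C: 100% = DMSO vehicle-treated control wells.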

Structure (SMILES): CC(C)NCC(C(=O)N1CCN(c2ncnc3c2C(C)CC3O)CC1)c1ccc(Cl)cc1 (configuration not stated) + Cc1nc(NC(=O)N2CCCC2C(N)=O)sc1-c1ccnc(C(C)(C)C(F)(F)F)c1
- IC50 (second compound 0.0316 µM): 1360 nM
- IC50 (second compound 0.1 µM): 1080 nM
- IC50 (second compound 0.316 µM): 875 nM
- IC50 (second compound 1 µM): 188 nM
- IC50 (second compound 3.16 µM): < 31.6 nM
- IC50 (second compound 10 µM): < 31.6 nM
- viability, T/C (second compound 0.0316 µM, first compound 0.0316 µM): 94.8%
- viability, T/C (second compound 0.0316 µM, first compound 0.1 µM): 77.4%
- viability, T/C (second compound 0.0316 µM, first compound 0.316 µM): 80.7%
- viability, T/C (second compound 0.0316 µM, first compound 1 µM): 52.2%
- viability, T/C (second compound 0.0316 µM, first compound 3.16 µM): 35.9%
- viability, T/C (second compound 0.0316 µM, first compound 10 µM): 20%
- viability, T/C (second compound 0.1 µM, first compound 0.0316 µM): 88.6%
- viability, T/C (second compound 0.1 µM, first compound 0.1 µM): 80.6%
- viability, T/C (second compound 0.1 µM, first compound 0.316 µM): 67.9%
- viability, T/C (second compound 0.1 µM, first compound 1 µM): 51.1%
- viability, T/C (second compound 0.1 µM, first compound 3.16 µM): 33.7%
- viability, T/C (second compound 0.1 µM, first compound 10 µM): 19.3%
- viability, T/C (second compound 0.316 µM, first compound 0.0316 µM): 85.6%
- viability, T/C (second compound 0.316 µM, first compound 0.1 µM): 69%
- viability, T/C (second compound 0.316 µM, first compound 0.316 µM): 68.3%
- viability, T/C (second compound 0.316 µM, first compound 1 µM): 47.2%
- viability, T/C (second compound 0.316 µM, first compound 3.16 µM): 30.8%
- viability, T/C (second compound 0.316 µM, first compound 10 µM): 16.1%
- viability, T/C (second compound 1 µM, first compound 0.0316 µM): 58%
- viability, T/C (second compound 1 µM, first compound 0.1 µM): 55%
- viability, T/C (second compound 1 µM, first compound 0.316 µM): 42.4%
- viability, T/C (second compound 1 µM, first compound 1 µM): 42.5%
- viability, T/C (second compound 1 µM, first compound 3.16 µM): 24.2%
- viability, T/C (second compound 1 µM, first compound 10 µM): 11.1%
- viability, T/C (second compound 3.16 µM, first compound 0.0316 µM): 39.8%
- viability, T/C (second compound 3.16 µM, first compound 0.1 µM): 37%
- viability, T/C (second compound 3.16 µM, first compound 0.316 µM): 30.7%
- viability, T/C (second compound 3.16 µM, first compound 1 µM): 30.2%
- viability, T/C (second compound 3.16 µM, first compound 3.16 µM): 17.5%
- viability, T/C (second compound 3.16 µM, first compound 10 µM): 7.85%
- viability, T/C (second compound 10 µM, first compound 0.0316 µM): 20.2%
- viability, T/C (second compound 10 µM, first compound 0.1 µM): 15.3%
- viability, T/C (second compound 10 µM, first compound 0.316 µM): 17.8%
- viability, T/C (second compound 10 µM, first compound 1 µM): 14.2%
- viability, T/C (second compound 10 µM, first compound 3.16 µM): 10.5%
- viability, T/C (second compound 10 µM, first compound 10 µM): 3.97%
